# Measured values as given in ChEMBL document CHEMBL3044707, “Synthesis of some new glutamine linked 2,3-disubstituted quinazolinone derivatives as potent antimicrobial and antioxidant agents” (Med Chem Res, 2013).
# Tests used:
# Type in all cases: functional
# Aspergillus flavus [1] = test: Antimicrobial activity against Aspergillus flavus NCIM 524 assessed as diameter of growth inhibition zone at 100 ug/ml after 48 hr by paper disk diffusion method; conditions: NCIM 524, 48 h, read-out: DIZ
# [2] = Antioxidant activity assessed as inhibition of Fe3+/ascorbic acid-induced hydroxyl radical production-mediated 2-deoxyribose degradation after 1 hr
# Pseudomonas aeruginosa [3] = test: Antimicrobial activity against Pseudomonas aeruginosa NCIM 5029 assessed as diameter of growth inhibition zone at 100 ug/ml after 24 hr by paper disk diffusion method; conditions: NCIM 5029, 24 h, read-out: DIZ
# Escherichia coli [4] = test: Antimicrobial activity against Escherichia coli NCIM 2574 assessed as diameter of growth inhibition zone at 100 ug/ml after 24 hr by paper disk diffusion method; conditions: NCIM 2574, 24 h, read-out: DIZ
# Bacillus subtilis [5] = test: Antimicrobial activity against Bacillus subtilis NCIM 2999 assessed as growth inhibition by agar streak dilution method
# Staphylococcus aureus [6] = test: Antimicrobial activity against Staphylococcus aureus NCIM 5021 assessed as growth inhibition by agar streak dilution method
# Aspergillus flavus [7] = test: Antimicrobial activity against Aspergillus flavus NCIM 524 assessed as growth inhibition by agar streak dilution method
# Bacillus subtilis [8] = test: Antimicrobial activity against Bacillus subtilis NCIM 2999 assessed as diameter of growth inhibition zone at 100 ug/ml after 24 hr by paper disk diffusion method; conditions: NCIM 2999, 24 h, read-out: DIZ
# Candida albicans [9] = test: Antimicrobial activity against Candida albicans NCIM 3102 assessed as growth inhibition by agar streak dilution method
# [10] = Antioxidant activity assessed as inhibition of xanthine-xanthine oxidase generated superoxide anion radical-mediated NBT reduction by spectrophotometric analysis
# Staphylococcus aureus [11] = test: Antimicrobial activity against Staphylococcus aureus NCIM 5021 assessed as diameter of growth inhibition zone at 100 ug/ml after 24 hr by paper disk diffusion method; conditions: NCIM 5021, 24 h, read-out: DIZ
# [12] = test system: Radical scavenging activity; test: Antioxidant activity assessed as DPPH radical scavenging activity by visible spectrophotometric analysis
# Escherichia coli [13] = test: Antimicrobial activity against Escherichia coli NCIM 2574 assessed as growth inhibition by agar streak dilution method
# Pseudomonas aeruginosa [14] = test: Antimicrobial activity against Pseudomonas aeruginosa NCIM 5029 assessed as growth inhibition by agar streak dilution method
# Candida albicans [15] = test: Antimicrobial activity against Candida albicans NCIM 3102 assessed as diameter of growth inhibition zone at 100 ug/ml after 48 hr by paper disk diffusion method; conditions: NCIM 3102, 48 h, read-out: DIZ
# [16] = Antioxidant activity assessed as inhibition of NO radical production from sodium nitroprusside after 150 min by Griess reagent analysis
# Candida albicans [17] = test: Antimicrobial activity against Candida albicans NCIM 3102 assessed as diameter of growth inhibition zone at 10 ug/disk after 48 hr by paper disk diffusion method; conditions: NCIM 3102, 48 h, read-out: DIZ
# Aspergillus flavus [18] = test: Antimicrobial activity against Aspergillus flavus NCIM 524 assessed as diameter of growth inhibition zone at 10 ug/disk after 48 hr by paper disk diffusion method; conditions: NCIM 524, 48 h, read-out: DIZ
# Staphylococcus aureus [19] = test: Antimicrobial activity against Staphylococcus aureus NCIM 5021 assessed as diameter of growth inhibition zone at 10 ug/disk after 24 hr by paper disk diffusion method; conditions: NCIM 5021, 24 h, read-out: DIZ
# Escherichia coli [20] = test: Antimicrobial activity against Escherichia coli NCIM 2574 assessed as diameter of growth inhibition zone at 10 ug/disk after 24 hr by paper disk diffusion method; conditions: NCIM 2574, 24 h, read-out: DIZ
# Pseudomonas aeruginosa [21] = test: Antimicrobial activity against Pseudomonas aeruginosa NCIM 5029 assessed as diameter of growth inhibition zone at 10 ug/disk after 24 hr by paper disk diffusion method; conditions: NCIM 5029, 24 h, read-out: DIZ
# Bacillus subtilis [22] = test: Antimicrobial activity against Bacillus subtilis NCIM 2999 assessed as diameter of growth inhibition zone at 10 ug/disk after 24 hr by paper disk diffusion method; conditions: NCIM 2999, 24 h, read-out: DIZ
Structure (SMILES),zone of inhibition at 100 µg/mL (Aspergillus flavus [1]),IC50 [2],zone of inhibition at 100 µg/mL (Pseudomonas aeruginosa [3]),zone of inhibition at 100 µg/mL (Escherichia coli [4]),MIC (Bacillus subtilis [5]),MIC (Staphylococcus aureus [6]),MIC (Aspergillus flavus [7]),zone of inhibition at 100 µg/mL (Bacillus subtilis [8]),MIC (Candida albicans [9]),IC50 [10],zone of inhibition at 100 µg/mL (Staphylococcus aureus [11]),IC50 [12],MIC (Escherichia coli [13]),MIC (Pseudomonas aeruginosa [14]),zone of inhibition at 100 µg/mL (Candida albicans [15]),IC50 [16],other results
NC(CCC(=O)n1c(-c2cc(F)cc(F)c2)nc2ccccc2c1=O)C(=O)O (stereo not drawn),10.4 mm,38.1 µg/mL,14 mm,12 mm,15 µg/mL,13 µg/mL,25 µg/mL,16 mm,15 µg/mL,45.7 µg/mL,11 mm,27.4 µg/mL,50 µg/mL,25 µg/mL,11 mm,,
NC(CCC(=O)n1c(-c2ccc(F)c(F)c2F)nc2ccccc2c1=O)C(=O)O (stereo not drawn),14.4 mm,55.1 µg/mL,14.8 mm,12.7 mm,8 µg/mL,8 µg/mL,15 µg/mL,13.5 mm,10 µg/mL,48.2 µg/mL,13.2 mm,29.7 µg/mL,12 µg/mL,10 µg/mL,13.6 mm,,
NC(CCC(=O)n1c(-c2cc(F)ccc2F)nc2ccccc2c1=O)C(=O)O (stereo not drawn),10.9 mm,41.8 µg/mL,17 mm,11 mm,12.5 µg/mL,12.5 µg/mL,15 µg/mL,12 mm,10 µg/mL,50.8 µg/mL,14 mm,34.9 µg/mL,30 µg/mL,35 µg/mL,11.4 mm,,
NC(CCC(=O)n1c(-c2ccc(Cl)cc2)nc2ccccc2c1=O)C(=O)O (stereo not drawn),12.1 mm,49 µg/mL,12 mm,11.5 mm,11.2 µg/mL,10 µg/mL,15 µg/mL,12.7 mm,12 µg/mL,41.8 µg/mL,13 mm,37.1 µg/mL,15 µg/mL,15 µg/mL,13.6 mm,41.8 µg/mL,
NC(CCC(=O)n1c(Cc2ccccc2)nc2ccccc2c1=O)C(=O)O (stereo not drawn),10.2 mm,29.8 µg/mL,11 mm,11 mm,50 µg/mL,50 µg/mL,75 µg/mL,7 mm,100 µg/mL,31.6 µg/mL,10 mm,26.6 µg/mL,> 100 µg/mL,> 100 µg/mL,14 mm,36.2 µg/mL,
NC(CCC(=O)n1c(OCc2ccccc2Cl)nc2ccccc2c1=O)C(=O)O (stereo not drawn),11 mm,27.7 µg/mL,13 mm,10 mm,50 µg/mL,30 µg/mL,40 µg/mL,14 mm,25 µg/mL,31.4 µg/mL,12 mm,26.1 µg/mL,50 µg/mL,50 µg/mL,13.7 mm,38.7 µg/mL,
COc1ccc(-c2nc3ccccc3c(=O)n2C(=O)CCC(N)C(=O)O)cc1 (stereo not drawn),14 mm,23.4 µg/mL,13 mm,11 mm,50 µg/mL,30 µg/mL,15 µg/mL,10 mm,25 µg/mL,20.1 µg/mL,14 mm,18.4 µg/mL,20 µg/mL,25 µg/mL,10 mm,20.1 µg/mL,
NC(CCC(=O)n1c(-c2ccc([N+](=O)[O-])cc2)nc2ccccc2c1=O)C(=O)O (stereo not drawn),13.6 mm,39 µg/mL,11 mm,9 mm,12.5 µg/mL,9.6 µg/mL,12.5 µg/mL,16 mm,10 µg/mL,,14 mm,36.4 µg/mL,25 µg/mL,25 µg/mL,14.1 mm,49 µg/mL,
Nc1ccc(-c2nc3ccccc3c(=O)n2C(=O)CCC(N)C(=O)O)cc1 (stereo not drawn),11 mm,18 µg/mL,16 mm,15 mm,30 µg/mL,25 µg/mL,50 µg/mL,13 mm,50 µg/mL,,10 mm,17.5 µg/mL,50 µg/mL,50 µg/mL,12.5 mm,19.4 µg/mL,
Cc1ccccc1-c1nc2ccccc2c(=O)n1C(=O)CCC(N)C(=O)O (stereo not drawn),15 mm,30.4 µg/mL,11 mm,10 mm,30 µg/mL,50 µg/mL,25 µg/mL,12 mm,25 µg/mL,,11 mm,24.9 µg/mL,50 µg/mL,30 µg/mL,12 mm,29.1 µg/mL,
NC(CCC(=O)n1c(-c2ccccc2)nc2ccccc2c1=O)C(=O)O (stereo not drawn),10 mm,31.2 µg/mL,12 mm,15 mm,50 µg/mL,45 µg/mL,25 µg/mL,11 mm,30 µg/mL,,11 mm,29.7 µg/mL,50 µg/mL,75 µg/mL,14 mm,36 µg/mL,
NC(CCC(=O)n1c(-c2ccc(O)cc2)nc2ccccc2c1=O)C(=O)O (stereo not drawn),15 mm,17.8 µg/mL,13 mm,15 mm,25 µg/mL,25 µg/mL,40 µg/mL,9 mm,40 µg/mL,15.2 µg/mL,13 mm,14.3 µg/mL,50 µg/mL,50 µg/mL,9 mm,15.2 µg/mL,
O=C1O[C@H]([C@@H](O)CO)C(O)=C1O [ASCORBIC ACID],,,,,,,,,,,,12.6 µg/mL,,,,,
OC(Cn1cncn1)(Cn1cncn1)c1ccc(F)cc1F [FLUCONAZOLE],,,,,,,5 µg/mL,,5 µg/mL,,,,,,,,zone of inhibition at 10 µg/disc (Candida albicans [17]): 16 mm; zone of inhibition at 10 µg/disc (Aspergillus flavus [18]): 19 mm
CN[C@@H]1[C@H](O[C@H]2[C@H](O[C@H]3[C@H](O)[C@@H](O)[C@H](N=C(N)N)[C@@H](O)[C@@H]3N=C(N)N)O[C@@H](C)[C@]2(O)C=O)O[C@@H](CO)[C@H](O)[C@H]1O [STREPTOMYCIN],,,,,5 µg/mL,5 µg/mL,,,,,,,5 µg/mL,5 µg/mL,,,zone of inhibition at 10 µg/disc (Staphylococcus aureus [19]): 14.1 mm; zone of inhibition at 10 µg/disc (Escherichia coli [20]): 16.5 mm; zone of inhibition at 10 µg/disc (Pseudomonas aeruginosa [21]): 14 mm; zone of inhibition at 10 µg/disc (Bacillus subtilis [22]): 13.4 mm
